Patent US9499550B2 (BRISTOL-MYERS SQUIBB COMPANY, priority 2012, dated 2016)
Read-outs that look alike come from different tables or passages of the source.

Tests used:
[1] = test system: HCV genotype 1a (H77 strain) replicon in HUH-7 cells; assay: HCV replicon luciferase reporter assay, genotype 1a; type: cell-based; conditions: Hepatitis C virus, Huh-7, 72 h, 3 days incubation, read-out: LE_1a (EC50, range)
Summary of the method: (§1)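 Replicon inhibition for both genotypes was measured as Renilla luciferase signal (EnduRen, 7.5 μM final, 2 h) after 3-day, 37° C exposure of replicon-bearing HUH-7 cells in 4% FCS DMEM, 0.5% DMSO. The 1b construct carries S1179I; the 1a H77 construct carries P1496L and S2204I. Twenty-point, 3-fold dilutions were fitted four-parametrically for EC50, and CC50 was taken from multiplexed Cell Titer-Blue.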

[2] = test system: HCV genotype 1b (Con1) replicon in HUH-7 cells; assay: HCV replicon luciferase reporter assay, genotype 1b; type: cell-based; conditions: Hepatitis C virus, Huh-7, 72 h, 3 days incubation, read-out: LE_1b (EC50, range)
Summary of the method: as §1

[3] = HCV genotype 1a replicon luciferase
[4] = HCV genotype 1b replicon luciferase
[5] = HCV genotype 1a replicon luciferase assay, range class
[6] = HCV genotype 1b replicon luciferase assay, range class
[7] = GETYPE1A, HCV genotype 1a replicon luciferase
[8] = GETYPE1B, HCV genotype 1b replicon luciferase

Row | Compound | EC50 [1, 3] [nM] | EC50 [2, 4] [nM] | EC50 [1, 5] [nM] | EC50 [2, 6] [nM] | also measured
1 | CCCOc1cnc(O[C@@H]2C[C@H]3C(=O)N[C@]4(C(=O)NS(=O)(=O)C5CC5)C[C@H]4/C=C\CC[C@@H](C)C[C@@H](C)[C@H](NC(=O)O[C@H](C)C(F)(F)F)C(=O)N3C2)c2ccccc12 [Compound 5095, (R)-1,1,1-trifluoropropan-2-yl((2R,6S,7R,9R,13aS,14aR,16aS,Z)-14a-((cyclopropylsulfonyl)carbamoyl)-7,9-dimethyl-5,16-dioxo-2-((4-propoxyisoquinolin-1-yl)oxy)-1,2,3,5,6,7,8,9,10,11,13a,14,14a,15,16,16a-hexadecahydrocyclopropa[e]pyrrolo[1,2-a][1,4]diazacyclopentadecin-6-yl)carbamate] | 4.82 to 103 | 4.82 to 103 |  |  | 
2 | CC[C@@H]1C[C@H](C)CC/C=C\[C@@H]2C[C@@]2(C(=O)NS(=O)(=O)C2(C)CC2)NC(=O)[C@@H]2C[C@@H](Oc3nccc4c5c(ccc34)OCCO5)CN2C(=O)[C@H]1NC(=O)OC(C)(C)C(C)(F)F [Compound 5332, 3,3-difluoro-2-methylbutan-2-yl((2R,6S,7R,9R,13aS,14aR,16aS,Z)-2-((2,3-dihydro-[1,4]dioxino[2,3-f]isoquinolin-7-yl)oxy)-7-ethyl-9-methyl-14a-(((1-methylcyclopropyl)sulfonyl)carbamoyl)-5,16-dioxo-1,2,3,5,6,7,8,9,10,11,13a,14,14a,15,16,16a-hexadecahydrocyclopropa[e]pyrrolo[1,2-a][1,4]diazacyclopentadecin-6-yl)carbamate] | < 5.46 | < 5.46 |  |  | 
3 | [2H]C([2H])([2H])C(OC(=O)N[C@@H]1C(=O)N2C[C@H](Oc3nc(-c4ccc(OC(C)C)nc4)cc4cc(OC)ccc34)C[C@H]2C(=O)N[C@]2(C(=O)NS(=O)(=O)C3(C)CC3)C[C@H]2/C=C\CC[C@@H](C)C[C@H]1C)(C([2H])([2H])[2H])C(F)(F)F [Compound 5227, 1,1,1,3,3,3-hexadeutero-2-(trifluoromethyl)propan-2-yl((2R,6S,7R,9R,13aS,14aR,16aS,Z)-2-((3-(6-isopropoxypyridin-3-yl)-6-methoxyisoquinolin-1-yl)oxy)-7,9-dimethyl-14a-(((1-methylcyclopropyl)sulfonyl)carbamoyl)-5,16-dioxo-1,2,3,5,6,7,8,9,10,11,13a,14,14a,15,16,16a-hexadecahydrocyclopropa[e]pyrrolo[1,2-a][1,4]diazacyclopentadecin-6-yl)carbamate] | < 5.46 | < 5.46 |  |  | 
4 | CCCOc1ccc2c(O[C@@H]3C[C@H]4C(=O)N[C@]5(C(=O)NS(=O)(=O)C6CC6)C[C@H]5/C=C\CC[C@H](C)C[C@@H](C)[C@H](NC(=O)OC(C)(C)C)C(=O)N4C3)nccc2c1 [Compound 5168, tert-butyl ((2R,6S,7R,9S,13aS,14aR,16aS,Z)-14a-((cyclopropylsulfonyl)carbamoyl)-7,9-dimethyl-5,16-dioxo-2-((6-propoxyisoquinolin-1-yl)oxy)-1,2,3,5,6,7,8,9,10,11,13a,14,14a,15,16,16a-hexadecahydrocyclopropa[e]pyrrolo[1,2-a][1,4]diazacyclopentadecin-6-yl)carbamate] | < 5.46 | < 5.46 |  |  | 
5 | COc1ccc2c(O[C@@H]3C[C@H]4C(=O)N[C@]5(C(=O)NS(=O)(=O)C6CC6)C[C@H]5/C=C\CC[C@@H](C)C[C@@H](C)[C@H](NC(=O)OC(C)(C)C(F)(F)F)C(=O)N4C3)nc(-c3ccc(OC)c(Cl)c3)cc2c1 [Compound 3052, 1,1,1-trifluoro-2-methylpropan-2-yl((2R,6S,7R,9R,13aS,14aR,16aS,Z)-2-((3-(3-chloro-4-methoxyphenyl)-6-methoxyisoquinolin-1-yl)oxy)-14a-((cyclopropylsulfonyl)carbamoyl)-7,9-dimethyl-5,16-dioxo-1,2,3,5,6,7,8,9,10,11,13a,14,14a,15,16,16a-hexadecahydrocyclopropa[e]pyrrolo[1,2-a][1,4]diazacyclopentadecin-6-yl)carbamate] |  |  | < 5.46 | < 5.46 | 
6 | COc1ccc2nc(C(C)C)c(O[C@@H]3C[C@H]4C(=O)N[C@]5(C(=O)NS(=O)(=O)C6CC6)C[C@H]5/C=C\CC[C@@H](C)C[C@@H](C)[C@H](NC(=O)OC(C)(C)C(F)(F)F)C(=O)N4C3)nc2c1 [Compound 4317] |  |  |  |  | EC50 [1, 7]: 1.01 to 5 nM; EC50 [2, 8]: 1.01 to 5 nM
7 | COc1ccc2c(O[C@@H]3C[C@H]4C(=O)N[C@]5(C(=O)NS(=O)(=O)C6(Cl)CC6)C[C@H]5/C=C\CC[C@@H](C)C[C@@H](C)[C@H](NC(=O)OC(C)(C)C(F)(F)F)C(=O)N4C3)ncc(OC)c2c1 [Compound 4124] |  |  |  |  | EC50 [1, 7]: < 5.46 nM; EC50 [2, 8]: < 5.46 nM
8 | COc1ccc2c(O[C@@H]3C[C@H]4C(=O)N[C@]5(C(=O)NS(=O)(=O)C6CC6)C[C@H]5/C=C\CC[C@H](C)C[C@@H](C)[C@H](NC(=O)OC(C)(C)C)C(=O)N4C3)nc(-c3ccc(OC(C)C)cc3)nc2c1 [Compound 3016, tert-butyl ((2R,6S,7R,9S,13aS,14aR,16aS,Z)-14a-((cyclopropylsulfonyl)carbamoyl)-2-((2-(4-isopropoxyphenyl)-7-methoxyquinazolin-4-yl)oxy)-7,9-dimethyl-5,16-dioxo-1,2,3,5,6,7,8,9,10,11,13a,14,14a,15,16,16a-hexadecahydrocyclopropa[e]pyrrolo[1,2-a][1,4]diazacyclopentadecin-6-yl)carbamate] |  |  | < 5.46 | < 5.46 | 
9 | COCCOc1cnc(O[C@@H]2C[C@H]3C(=O)N[C@]4(C(=O)NS(=O)(=O)C5CC5)C[C@H]4/C=C\CC[C@H](C)C[C@@H](C)[C@H](NC(=O)OC(C)(C)C(F)(F)F)C(=O)N3C2)c2ccc(OC)cc12 [Compound 1146, 1,1,1-trifluoro-2-methylpropan-2-yl((2R,6S,7R,9S,13aS,14aR,16aS,Z)-14a-((cyclopropylsulfonyl)carbamoyl)-2-((6-methoxy-4-(2-methoxyethoxyl)isoquinolin-1-yl)oxy)-7,9-dimethyl-5,16-dioxo-1,2,3,5,6,7,8,9,10,11,13a,14,14a,15,16,16a-hexadecahydrocyclopropa[e]pyrrolo[1,2-a][1,4]diazacyclopentadecin-6-yl)carbamate] |  |  | < 5.46 | < 5.46 | 
10 | COCCn1nc(O[C@@H]2C[C@H]3C(=O)N[C@]4(C(=O)NS(=O)(=O)C5(C)CC5)C[C@H]4/C=C\CC[C@@H](C)C[C@@H](C)[C@H](NC(=O)OC(C)(C)C(C)(F)F)C(=O)N3C2)c2ccccc2c1=O [Compound 1020, 3,3-difluoro-2-methylbutan-2-yl((2R,6S,7R,9R,13aS,14aR,16aS,Z)-2-((3-(2-methoxyethyl)-4-oxo-3,4-dihydrophthalazin-1-yl)oxy)-7,9-dimethyl-14a-(((1-methylcyclopropyl)sulfonyl)carbamoyl)-5,16-dioxo-1,2,3,5,6,7,8,9,10,11,13a,14,14a,15,16,16a-hexadecahydrocyclopropa[e]pyrrolo[1,2-a][1,4]diazacyclopentadecin-6-yl)carbamate] |  |  | 4.82 to 103 | 4.82 to 103 | 
11 | COc1ccc2c(O[C@@H]3C[C@H]4C(=O)N[C@]5(C(=O)NS(=O)(=O)C6CC6)C[C@H]5/C=C\CC[C@H](C)C[C@@H](C)[C@H](NC(=O)OC5C[C@@H]6C[C@@H]6C5)C(=O)N4C3)nc(-c3ccc(OC(C)C)nc3)cc2c1 (stereo partly drawn) [Compound 5218, (1R,3r,5S)-bicyclo[3.1.0]hexan-3-yl((2R,6S,7R,9S,13aS,14aR,16aS,Z)-14a-((cyclopropylsulfonyl)carbamoyl)-2-((3-(6-isopropoxypyridin-3-yl)-6-methoxyisoquinolin-1-yl)oxy)-7,9-dimethyl-5,16-dioxo-1,2,3,5,6,7,8,9,10,11,13a,14,14a,15,16,16a-hexadecahydrocyclopropa[e]pyrrolo[1,2-a][1,4]diazacyclopentadecin-6-yl)carbamate] | < 5.46 | < 5.46 |  |  | 
12 | CC(C)Oc1ccc2c(O[C@@H]3C[C@H]4C(=O)N[C@]5(C(=O)NS(=O)(=O)C6(C)CC6)C[C@H]5/C=C\CC[C@H](C)C[C@@H](C)[C@H](NC(=O)OC(C)(C)C)C(=O)N4C3)nccc2c1 [Compound 5156, tert-butyl ((2R,6S,7R,9S,13aS,14aR,16aS,Z)-2-((6-isopropoxyisoquinolin-1-yl)oxy)-7,9-dimethyl-14a-(((1-methylcyclopropyl)sulfonyl)carbamoyl)-5,16-dioxo-1,2,3,5,6,7,8,9,10,11,13a,14,14a,15,16,16a-hexadecahydrocyclopropa[e]pyrrolo[1,2-a][1,4]diazacyclopentadecin-6-yl)carbamate] | 4.82 to 103 | 4.82 to 103 |  |  | 
13 | CC(C)n1nc(O[C@@H]2C[C@H]3C(=O)N[C@]4(C(=O)NS(=O)(=O)C5CC5)C[C@H]4/C=C\CC[C@H](C)C[C@@H](C)[C@H](NC(=O)OC(C)(C)C(F)(F)F)C(=O)N3C2)c2ccccc2c1=O [Compound 1009, 1,1,1-trifluoro-2-methylpropan-2-yl((2R,6S,7R,9S,13aS,14aR,16aS,Z)-14a-((cyclopropylsulfonyl)carbamoyl)-2-((3-isopropyl-4-oxo-3,4-dihydrophthalazin-1-yl)oxy)-7,9-dimethyl-5,16-dioxo-1,2,3,5,6,7,8,9,10,11,13a,14,14a,15,16,16a-hexadecahydrocyclopropa[e]pyrrolo[1,2-a][1,4]diazacyclopentadecin-6-yl)carbamate] |  |  | > 87.4 | > 87.4 | 
